This note sets out measurements from ChEMBL document CHEMBL1926576, “Fragment based lead discovery of small molecule inhibitors for the EPHA4 receptor tyrosine kinase” (Eur J Med Chem, 2012).

Usually inhibition stands for the percentage by which the read-out fell short of the control. Broadly, the IC50 is the concentration needed to halve the response being measured.

SMILES strings stand for the structures.

T1 sequence (P54764 whole entry): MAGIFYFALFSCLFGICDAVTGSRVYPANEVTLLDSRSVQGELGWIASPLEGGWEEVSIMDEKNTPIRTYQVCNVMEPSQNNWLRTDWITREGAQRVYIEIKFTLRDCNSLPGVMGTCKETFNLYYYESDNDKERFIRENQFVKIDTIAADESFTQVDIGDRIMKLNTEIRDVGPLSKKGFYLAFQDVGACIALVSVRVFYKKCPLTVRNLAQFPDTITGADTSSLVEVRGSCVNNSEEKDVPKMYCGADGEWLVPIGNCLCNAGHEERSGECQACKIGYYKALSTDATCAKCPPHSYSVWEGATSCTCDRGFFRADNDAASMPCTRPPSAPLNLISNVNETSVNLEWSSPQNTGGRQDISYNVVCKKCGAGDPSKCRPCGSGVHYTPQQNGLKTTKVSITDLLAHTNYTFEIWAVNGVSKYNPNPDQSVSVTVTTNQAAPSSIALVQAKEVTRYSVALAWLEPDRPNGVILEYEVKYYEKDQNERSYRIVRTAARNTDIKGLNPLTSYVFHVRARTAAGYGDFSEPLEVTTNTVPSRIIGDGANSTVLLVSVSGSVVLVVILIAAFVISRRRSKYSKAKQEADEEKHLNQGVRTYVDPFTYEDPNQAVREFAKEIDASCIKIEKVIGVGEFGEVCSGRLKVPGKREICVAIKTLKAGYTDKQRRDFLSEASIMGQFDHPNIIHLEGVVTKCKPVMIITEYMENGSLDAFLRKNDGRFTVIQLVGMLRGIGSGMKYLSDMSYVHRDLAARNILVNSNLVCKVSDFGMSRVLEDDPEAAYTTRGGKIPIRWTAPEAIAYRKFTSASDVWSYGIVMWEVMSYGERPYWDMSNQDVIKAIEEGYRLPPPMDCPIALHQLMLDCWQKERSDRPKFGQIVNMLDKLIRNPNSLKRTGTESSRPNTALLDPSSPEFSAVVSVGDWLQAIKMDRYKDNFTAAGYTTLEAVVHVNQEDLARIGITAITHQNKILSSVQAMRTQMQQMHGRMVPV

The first assay has as its target T1, Ephrin type-A receptor 4 (Homo sapiens, UniProt P54764). Nature of the assay: Inhibition of his-tagged EPHA4-mediated poly(Glu,Tyr) phosphorylation at 500 uM after 75 mins using E4:Y1 as substrate by fluorescence assay.
As for `Nc1n[nH]c2ncc3c(c12)CCCC3`, the inhibition came to 80%.

A further assay addresses T1, Ephrin type-A receptor 4. The experiment in a line: Inhibition of his-tagged EPHA4-mediated poly(Glu,Tyr) phosphorylation at 200 uM after 75 mins using E4:Y1 as substrate by fluorescence assay.
`Cc1cc(C)c2c(NC(=O)c3ccccc3)n[nH]c2n1` returned an inhibition of 10%.

Compound `CCCc1nc2[nH]nc(N)c2c2c1COC(C)(C)C2` registered an inhibition of 77%.

`CN1CCc2c(c(NCCO)nc3[nH]nc(N)c23)C1` registered an inhibition of 0%.

Compound `CCN(CC)c1nc2[nH]nc(N)c2c2c1CN(C)CC2` had an inhibition of 5%.

On to `CC1(C)Cc2c(c(-c3ccccc3)nc3[nH]nc(N)c23)CO1`, for which the inhibition turned out to be 90%.

Compound `Nc1n[nH]c2ncc3c(c12)CCCCCC3` showed an inhibition of 80%.

`Cc1nc2[nH]nc(N)c2c2c1CSC(C)(C)C2`: the inhibition is 70%.

As to `CC1(C)Cc2c(c(-c3ccccc3)nc3[nH]nc(N)c23)CS1`, the inhibition came out at 87%.

`CN1CCc2c(c(N3CCOCC3)nc3[nH]nc(N)c23)C1` yielded an inhibition of 0%.

On to `CC(C)c1nc2[nH]nc(N)c2c2c1COC(C)(C)C2`, for which the inhibition turned out to be 82%.

`CC1(C)Cc2c(c(-c3ccco3)[nH]c3nnc(N)c2-3)CO1` gave an inhibition of 75%.

Turning to `CN1CCc2c(c(NCc3ccccc3)nc3[nH]nc(N)c23)C1`, the inhibition amounted to 33%.

The target of the next assay is T1, Ephrin type-A receptor 4. Nature of the assay: Inhibition of his-tagged EPHA4-mediated poly(Glu,Tyr) phosphorylation after 75 mins using E4:Y1 as substrate by fluorescence assay.
`Nc1n[nH]c2nc(-c3ccccc3Cl)c3c(c12)CCCC3` registered a half-inhibitory concentration (IC50) of 8.1 µM.

`Cc1ccccc1-c1nc2[nH]nc(N)c2c2c1CCCC2` had an IC50 of 2 µM.
